Experimental data: the supplement of paper PMC11451515

Tested on: P12-Ichikawa
Experiment: cell viability relative to DMSO control; higher = less cytotoxic
Conditions: 48 h
In short: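 Viability is expressed as a percentage of DMSO wells within each plate, and cell-free wells serve as background. Seeding densities in the 1536-well plates (5 μl) were 500 cells/well for NOMO1 or SEM leukemia cells and 1000 cells/well for P12-Ichikawa. Each line was adapted for at least four passages in each medium. Library compounds in DMSO were pin-dosed at 47 μM to 0.79 nM (11 points, threefold), and CellTiter-Glo One luminescence was read after 48 h at 37°C.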

[1] = HPLM + 10% dialyzed FBS, 0.000781 µM
[2] = HPLM + 10% dialyzed FBS, 0.00234 µM
[3] = HPLM + 10% dialyzed FBS, 0.00702 µM
[4] = HPLM + 10% dialyzed FBS, 0.0211 µM
[5] = HPLM + 10% dialyzed FBS, 0.0632 µM
[6] = HPLM + 10% dialyzed FBS, 0.19 µM
[7] = HPLM + 10% dialyzed FBS, 0.569 µM
[8] = HPLM + 10% dialyzed FBS, 1.71 µM
[9] = HPLM + 10% dialyzed FBS, 5.12 µM
[10] = HPLM + 10% dialyzed FBS, 15.4 µM
[11] = HPLM + 10% dialyzed FBS, 46.1 µM
[12] = RPMI 5 mM glucose + 10% FBS, 0.000781 µM
[13] = RPMI 5 mM glucose + 10% FBS, 0.00234 µM
[14] = RPMI 5 mM glucose + 10% FBS, 0.00702 µM
[15] = RPMI 5 mM glucose + 10% FBS, 0.0211 µM
[16] = RPMI 5 mM glucose + 10% FBS, 0.0632 µM
[17] = RPMI 5 mM glucose + 10% FBS, 0.19 µM
[18] = RPMI 5 mM glucose + 10% FBS, 0.569 µM
[19] = RPMI 5 mM glucose + 10% FBS, 1.71 µM
[20] = RPMI 5 mM glucose + 10% FBS, 5.12 µM
[21] = RPMI 5 mM glucose + 10% FBS, 15.4 µM
[22] = RPMI 5 mM glucose + 10% FBS, 46.1 µM
[23] = RPMI 5 mM glucose + 10% dialyzed FBS, 0.000781 µM
[24] = RPMI 5 mM glucose + 10% dialyzed FBS, 0.00234 µM
[25] = RPMI 5 mM glucose + 10% dialyzed FBS, 0.00702 µM
[26] = RPMI 5 mM glucose + 10% dialyzed FBS, 0.0211 µM
[27] = RPMI 5 mM glucose + 10% dialyzed FBS, 0.0632 µM
[28] = RPMI 5 mM glucose + 10% dialyzed FBS, 0.19 µM
[29] = RPMI 5 mM glucose + 10% dialyzed FBS, 0.569 µM
[30] = RPMI 5 mM glucose + 10% dialyzed FBS, 1.71 µM
[31] = RPMI 5 mM glucose + 10% dialyzed FBS, 5.12 µM
[32] = RPMI 5 mM glucose + 10% dialyzed FBS, 15.4 µM
[33] = RPMI 5 mM glucose + 10% dialyzed FBS, 46.1 µM

Compound	cell viability [1] [%]	cell viability [2] [%]	cell viability [3] [%]	cell viability [4] [%]	cell viability [5] [%]	cell viability [6] [%]	cell viability [7] [%]	cell viability [8] [%]	cell viability [9] [%]	cell viability [10] [%]	cell viability [11] [%]	cell viability [12] [%]	cell viability [13] [%]	cell viability [14] [%]	cell viability [15] [%]	cell viability [16] [%]	cell viability [17] [%]	cell viability [18] [%]	cell viability [19] [%]	cell viability [20] [%]	cell viability [21] [%]	cell viability [22] [%]	cell viability [23] [%]	cell viability [24] [%]	cell viability [25] [%]	cell viability [26] [%]	cell viability [27] [%]	cell viability [28] [%]	cell viability [29] [%]	cell viability [30] [%]	cell viability [31] [%]	cell viability [32] [%]	cell viability [33] [%]
CCN(CC)CCN1C(=O)\C(=N/C2=CC=CC=C12)CC3=CC=C(OC)C=C3	107	111	110	114	119	114	120	113	109	114	113	93.6	113	109	119	127	121	130	119	111	114	119	107	112	118	107	112	109	109	111	104	96.5	96.6
C=CCn1c(=O)c2cnc(Nc3ccc(N4CCN(C)CC4)cc3)nc2n1-c1cccc(C(C)(C)O)n1	120	116	121	125	110	111	99.3	43.7	17	15.9	17.4	–	–	–	–	–	–	–	–	–	–	–	–	–	–	–	–	–	–	–	–	–	–
CN(C)CCCNC(=O)c1ccc(-c2cc(O)c3ncccc3c2)cc1	102	102	106	107	106	111	93.9	104	101	95.2	82.6	95.7	97.4	101	104	111	89.6	93.3	95.5	92	99.8	63.6	92.3	97.9	96.8	97.5	103	95.1	98.5	90.6	83.4	100	71.1
COC(=O)[C@@H](N)CCCNC(=N)N[N+](=O)[O-]	94.6	102	104	98.4	111	98.1	110	107	107	103	115	85.4	96.7	99	94	105	98.5	114	103	105	99.3	105	85.9	93	90.7	97.5	99.2	91.5	99.7	98.6	95.9	92	94
CCNC(=O)[C@H]1O[C@@H](n2cnc3c(N)nc(NCCc4ccc(CCC(=O)O)cc4)nc32)[C@H](O)[C@@H]1O	108	97.9	101	106	109	101	106	103	104	96.8	96.1	105	102	96.2	102	102	97.5	99.9	99.6	96.4	93.3	92.2	106	98.9	107	99.8	105	97.2	108	91.3	101	95.9	93.3
COc1ccc(Nc2cc(-c3cnc(N)nc3)nc(N3CCOCC3)n2)cn1	98.7	101	98.4	102	103	94.9	96.7	89.9	63.7	71.1	71.9	89.9	90.9	93.9	90.7	100	87.7	89.5	79.3	52.2	54.1	56.6	93.7	90.4	95.8	98.7	102	98.6	86.3	88.1	50.4	54.1	51.7
CO[C@H]1C[C@@H]2CC[C@@H](C)[C@@](O)(O2)C(=O)C(=O)N2CCCC[C@H]2C(=O)O[C@H]([C@H](C)C[C@@H]2CC[C@@H](OCCO)[C@H](OC)C2)CC(=O)[C@H](C)/C=C(/C)[C@@H](O)[C@@H](OC)C(=O)[C@H](C)C[C@H](C)\C=C/C=C\C=C/1C	101	109	104	94.1	99.9	98.9	96.5	86.6	76.7	44.7	50.3	82.5	94	89.6	79.2	77.8	77.7	68.8	70.6	51.8	25.7	26.1	90.8	99.1	93.7	84.9	85.8	87.1	80.5	78.1	51.4	33.4	33.9
COC[C@H]1OC(=O)C2=COC3=C2[C@@]1(C)\C4=C(\[C@@H]5CC[C@H](O)[C@@]5(C)C[C@H]4OC(C)=O)C3=O	105	120	85.6	117	120	123	127	123	121	109	68.2	104	121	67.4	118	114	129	128	124	117	101	81.6	100	115	84.9	120	131	126	132	130	116	88.8	58.9
Cc1ccc(C(=O)c2cc(O)c(O)c([N+](=O)[O-])c2)cc1	93.6	93.5	95.5	103	101	104	104	102	90.9	101	105	90.2	88.2	85.9	85.8	102	103	95.1	94.6	84.3	102	102	82.5	93.4	95	91.8	89.3	93.6	99.2	91	84.7	89.5	91.4
O=C1NC(=O)/C(=C/c2cccc(C(F)(F)F)c2)S1	107	110	111	110	103	108	104	110	106	98	100	99.3	96.4	99.8	115	94.1	94.8	98.6	98.7	100	89.4	82.9	90.3	97.4	91.9	104	95.9	93.1	94.2	99.7	97.4	90.2	89.2
C[N+](C)([O-])CCNc1ccc(NCC[N+](C)(C)[O-])c2c1C(=O)c1c(O)ccc(O)c1C2=O	99.5	98.6	97.6	103	100	90.1	83.2	63.4	21.8	28.9	15.2	101	101	92.3	102	82.7	72.3	62.9	42.8	7.99	13.9	7.05	84.3	80.9	95.8	96	83.7	79.3	76.2	44.9	14.8	23.6	10.6
Nc1nc(OCc2ccccc2)c2nc[nH]c2n1	108	110	117	115	120	120	120	118	114	112	113	97.9	107	120	117	124	111	114	118	120	120	111	105	114	119	117	121	117	122	120	121	120	119
Cc1cc(Cl)ccc1OCCCC(=O)NO	102	105	105	116	106	105	101	98.6	78.3	15	3.84	97.8	102	108	110	101	98.2	99.4	81.2	57.9	17.4	3.91	113	104	108	111	111	102	100	35.9	37.2	5.67	3.42
CN(C)CC/C=C1/c2ccccc2COc2ccc(CC(=O)O)cc21	118	112	116	120	125	125	122	126	129	125	131	–	–	–	–	–	–	–	–	–	–	–	122	114	122	141	140	136	146	135	134	136	138
